Assay results: patent publication US20030166601A1, “Novel colloid synthetic vectors for gene therapy” (priority 1999, published 2003)

Test system: CD-1 mice
Assay: Luciferase expression in organs after intravenous injection of pCILuc complexes
Format: in vivo
Conditions: for Luciferase RLU/20 μl lysate heart / Luciferase RLU/20 μl lysate kidney / Luciferase RLU/20 μl lysate liver / Luciferase RLU/20 μl lysate lung / Luciferase RLU/20 μl lysate spleen: 40 μg pCILuc i.v., 5 h; for Luciferase activity heart / Luciferase activity kidney / Luciferase activity liver / Luciferase activity lung / Luciferase activity spleen: Table 5
Experimental: Substituted aminoethanols (cationic compounds) were prepared as described in Examples 1-34. Their gene delivery ability was studied in vivo by intravenous injection (Table 1 and 2) using a standard method. The preparations were administered via tail vein injection to mice and gene expression determined after 5 hours. Female CD-1 mice, 13-15 g, were purchased from Charles River Inc. Forty microgram of pCILuc complexed with GC lipids or GC lipid:Chol dispersion as indicated weight ratios. After 5 h, mice were sacrificed and organs were collected. Organs were homogenized in 0.5 ml of lysis buffer and 20 μl of supernatant was used for luciferase assay. Luciferase activity was represented as a mean of relative light unit (RLU) of four mice. The lipids were either used alone or combined with cholesterol and complexed with a luciferase reporter gene plasmid by a standard procedure at a range of weight and charge ratios. For the in vivo screen, 40 μg of pCILuc was complexed with the formulation and injected into the mice.
All compounds were evaluated for in vivo activity. Two critical factors were examined, formulation with or without cholesterol and the ratio of cationic lipid to DNA. Cholesterol was tested at 1:1 mole ratio of lipid:chol. The studies were performed with a dose of 40 μg of pCILuc complexed with cationic lipid or lipid: Chol (1:1 mole ratio) injected i.v. into CD-1 mice and then luciferase activity in different organs determined 5 h later. The first evaluation included all of 14 GC-lipids at weight ratios of 2 and 10 (GC lipid to DNA). It was performed by four separated experiments. Each time cationic liposome DOTAP:Chol was used as a standard control.
Measurements were repeated with lipids GC-030, GC-034 and GC-029 at wider weight ratios than the first experiment. Luciferase activity is represented as a mean of relative light unit (RLU) of four mice. WR means weight ratio of GC lipids to DNA. The transfection activity was represented by luciferase activity RLU/organ. […] The transfection activity increased with the increased weight ratio (GC lipids to DNA). Inclusion of cholesterol can change the biodistribution of gene expression in the different organs examined. […] However this function of cholesterol was not seen with GC-034.

## CC(C)CCC[C@@H](C)[C@H]1CC[C@H]2[C@@H]3CC=C4C[C@@H](OC(=O)NCCNC(=O)[C@@H](N)CCCN)CC[C@]4(C)[C@H]3CC[C@]12C [GC-003]
WR 2
  Luciferase RLU/20 μl lysate heart: 37 RLU/20 μl lysate
  Luciferase RLU/20 μl lysate kidney: 38 RLU/20 μl lysate
  Luciferase RLU/20 μl lysate liver: 33 RLU/20 μl lysate
  Luciferase RLU/20 μl lysate lung: 37 RLU/20 μl lysate
WR 10
  Luciferase RLU/20 μl lysate heart: 39 RLU/20 μl lysate
  Luciferase RLU/20 μl lysate kidney: 40 RLU/20 μl lysate
  Luciferase RLU/20 μl lysate liver: 73 RLU/20 μl lysate
  Luciferase RLU/20 μl lysate lung: 69 RLU/20 μl lysate
WR 10, spleen
  Luciferase RLU/20 μl lysate spleen: 65 RLU/20 μl lysate
WR (lipid to DNA) 2, spleen
  Luciferase RLU/20 μl lysate spleen: 36 RLU/20 μl lysate

## CCCCCCCCCCCCCCCCCCN(CCCCCCCCCCCCCCCCCC)C(=O)CNC(=O)[C@H](CCCN(CCCN)CCCN)N(CCCN)CCCN.O=C(O)C(F)(F)F.O=C(O)C(F)(F)F.O=C(O)C(F)(F)F.O=C(O)C(F)(F)F.O=C(O)C(F)(F)F.O=C(O)C(F)(F)F [GC-016]
WR 2
  Luciferase RLU/20 μl lysate heart: 44 RLU/20 μl lysate
  Luciferase RLU/20 μl lysate kidney: 41 RLU/20 μl lysate
  Luciferase RLU/20 μl lysate liver: 38 RLU/20 μl lysate
  Luciferase RLU/20 μl lysate lung: 45 RLU/20 μl lysate
WR 10
  Luciferase RLU/20 μl lysate heart: 40 RLU/20 μl lysate
  Luciferase RLU/20 μl lysate kidney: 40 RLU/20 μl lysate
  Luciferase RLU/20 μl lysate liver: 95 RLU/20 μl lysate
  Luciferase RLU/20 μl lysate lung: 67 RLU/20 μl lysate
WR 10, spleen
  Luciferase RLU/20 μl lysate spleen: 230 RLU/20 μl lysate
WR (lipid to DNA) 2, spleen
  Luciferase RLU/20 μl lysate spleen: 40 RLU/20 μl lysate

## CCCCCCCCCCCCCCCCCCN(CCCCCCCCCCCCCCCCCC)C(=O)[C@H](CSSC[C@H](NC(=O)[C@@H](N)CCCN)C(=O)N(CCCCCCCCCCCCCCCCCC)CCCCCCCCCCCCCCCCCC)NC(=O)[C@@H](N)CCCN.O=C(O)C(F)(F)F.O=C(O)C(F)(F)F.O=C(O)C(F)(F)F.O=C(O)C(F)(F)F [GC-025]
WR 2
  Luciferase RLU/20 μl lysate heart: 33 RLU/20 μl lysate
  Luciferase RLU/20 μl lysate kidney: 25 RLU/20 μl lysate
  Luciferase RLU/20 μl lysate liver: 38 RLU/20 μl lysate
  Luciferase RLU/20 μl lysate lung: 40 RLU/20 μl lysate
WR 10
  Luciferase RLU/20 μl lysate heart: 27 RLU/20 μl lysate
  Luciferase RLU/20 μl lysate kidney: 28 RLU/20 μl lysate
  Luciferase RLU/20 μl lysate liver: 27 RLU/20 μl lysate
  Luciferase RLU/20 μl lysate lung: 30 RLU/20 μl lysate
WR 10, spleen
  Luciferase RLU/20 μl lysate spleen: 32 RLU/20 μl lysate
WR (lipid to DNA) 2, spleen
  Luciferase RLU/20 μl lysate spleen: 46 RLU/20 μl lysate

## CCCCCCCCCCCCCCCCCCN(CCCCCCCCCCCCCCCCCC)C(=O)C(CSSCC(NC(=O)C(CCCNCCCN)NCCCN)C(=O)N(CCCCCCCCCCCCCCCCCC)CCCCCCCCCCCCCCCCCC)NC(=O)C(CCCNCCCN)NCCCN.O=C(O)C(F)(F)F.O=C(O)C(F)(F)F.O=C(O)C(F)(F)F.O=C(O)C(F)(F)F.O=C(O)C(F)(F)F.O=C(O)C(F)(F)F.O=C(O)C(F)(F)F.O=C(O)C(F)(F)F (stereo not shown) [GC-026]
WR 2
  Luciferase RLU/20 μl lysate heart: 42 RLU/20 μl lysate
  Luciferase RLU/20 μl lysate kidney: 41 RLU/20 μl lysate
  Luciferase RLU/20 μl lysate liver: 39 RLU/20 μl lysate
  Luciferase RLU/20 μl lysate lung: 40 RLU/20 μl lysate
WR 10
  Luciferase RLU/20 μl lysate heart: 0 RLU/20 μl lysate
  Luciferase RLU/20 μl lysate kidney: 0 RLU/20 μl lysate
  Luciferase RLU/20 μl lysate liver: 0 RLU/20 μl lysate
  Luciferase RLU/20 μl lysate lung: 0 RLU/20 μl lysate
WR 10, spleen
  Luciferase RLU/20 μl lysate spleen: 0 RLU/20 μl lysate
WR (lipid to DNA) 2, spleen
  Luciferase RLU/20 μl lysate spleen: 40 RLU/20 μl lysate

## CCCCCCCCCCCCCCCCCC(CCCCCCCCCCCCCCCCC)OC(=O)NCCNC(=O)[C@H](CCCNCCCN)NCCCN.O=C(O)C(F)(F)F.O=C(O)C(F)(F)F.O=C(O)C(F)(F)F.O=C(O)C(F)(F)F [GC-029]
WR 2
  Luciferase RLU/20 μl lysate heart: 42 RLU/20 μl lysate
  Luciferase activity heart: 933 RLU/organ
  Luciferase RLU/20 μl lysate kidney: 34 RLU/20 μl lysate
  Luciferase activity kidney: 1,000 RLU/organ
  Luciferase RLU/20 μl lysate liver: 31 RLU/20 μl lysate
  Luciferase activity liver: 825 RLU/organ
  Luciferase RLU/20 μl lysate lung: 41 RLU/20 μl lysate
  Luciferase activity lung: 967 RLU/organ
WR 2, spleen
  Luciferase activity spleen: 908 RLU/organ
WR 10
  Luciferase RLU/20 μl lysate heart: 34 RLU/20 μl lysate
  Luciferase activity heart: 858 RLU/organ
  Luciferase RLU/20 μl lysate kidney: 42 RLU/20 μl lysate
  Luciferase activity kidney: 808 RLU/organ
  Luciferase RLU/20 μl lysate liver: 65 RLU/20 μl lysate
  Luciferase activity liver: 1,408 RLU/organ
  Luciferase RLU/20 μl lysate lung: 72 RLU/20 μl lysate
  Luciferase activity lung: 1,017 RLU/organ
WR 10, spleen
  Luciferase RLU/20 μl lysate spleen: 196 RLU/20 μl lysate
  Luciferase activity spleen: 1,992 RLU/organ
WR (lipid to DNA) 2, spleen
  Luciferase RLU/20 μl lysate spleen: 31 RLU/20 μl lysate

## CCCCCCCCCCCCCCCCCC(CCCCCCCCCCCCCCCCC)OC(=O)NCCNC(=O)[C@@H](N)CCCN.O=C(O)C(F)(F)F.O=C(O)C(F)(F)F [GC-030]
WR 1
  Luciferase activity heart: 1,675 RLU/organ
  Luciferase activity kidney: 1,392 RLU/organ
  Luciferase activity liver: 3,642 RLU/organ
  Luciferase activity lung: 3,308 RLU/organ
WR 1, spleen
  Luciferase activity spleen: 23,308 RLU/organ
WR 2
  Luciferase RLU/20 μl lysate heart: 48 RLU/20 μl lysate
  Luciferase activity heart: 1,367 RLU/organ
  Luciferase RLU/20 μl lysate kidney: 51 RLU/20 μl lysate
  Luciferase activity kidney: 1,458 RLU/organ
  Luciferase RLU/20 μl lysate liver: 70 RLU/20 μl lysate
  Luciferase activity liver: 3,417 RLU/organ
  Luciferase RLU/20 μl lysate lung: 88 RLU/20 μl lysate
  Luciferase activity lung: 1,600 RLU/organ
WR 2, spleen
  Luciferase activity spleen: 73,442 RLU/organ
WR 6
  Luciferase activity heart: 817 RLU/organ
  Luciferase activity kidney: 792 RLU/organ
  Luciferase activity liver: 1,550 RLU/organ
  Luciferase activity lung: 8,808 RLU/organ
WR 6, spleen
  Luciferase activity spleen: 38,058 RLU/organ
WR 10
  Luciferase RLU/20 μl lysate heart: 67 RLU/20 μl lysate
  Luciferase activity heart: 3,450 RLU/organ
  Luciferase RLU/20 μl lysate kidney: 105 RLU/20 μl lysate
  Luciferase activity kidney: 1,367 RLU/organ
  Luciferase RLU/20 μl lysate liver: 1,093 RLU/20 μl lysate
  Luciferase activity liver: 114,425 RLU/organ
  Luciferase RLU/20 μl lysate lung: 1,396 RLU/20 μl lysate
  Luciferase activity lung: 35,117 RLU/organ
WR 10, spleen
  Luciferase RLU/20 μl lysate spleen: 5,305 RLU/20 μl lysate
  Luciferase activity spleen: 446,650 RLU/organ
WR 20
  Luciferase activity heart: 4,783 RLU/organ
  Luciferase activity kidney: 17,583 RLU/organ
  Luciferase activity liver: 1,003,125 RLU/organ
  Luciferase activity lung: 689,475 RLU/organ
WR 20, spleen
  Luciferase activity spleen: 2,479,217 RLU/organ
WR (lipid to DNA) 2, spleen
  Luciferase RLU/20 μl lysate spleen: 3,692 RLU/20 μl lysate
Weight ratio 20, spleen
  luciferase activity in spleen relative to DOTAP:Chol standard: 36 fold

## CCCCCCCCCCCCCCCCCCN(CCCCCCCCCCCCCCCCCC)C(=O)CC[C@H](NC(=O)[C@H](CCCNCCCN)NCCCN)C(=O)O.O=C(O)C(F)(F)F.O=C(O)C(F)(F)F.O=C(O)C(F)(F)F.O=C(O)C(F)(F)F [GC-033]
WR 2
  Luciferase RLU/20 μl lysate heart: 31 RLU/20 μl lysate
  Luciferase RLU/20 μl lysate kidney: 27 RLU/20 μl lysate
  Luciferase RLU/20 μl lysate liver: 29 RLU/20 μl lysate
  Luciferase RLU/20 μl lysate lung: 36 RLU/20 μl lysate
WR 10
  Luciferase RLU/20 μl lysate heart: 40 RLU/20 μl lysate
  Luciferase RLU/20 μl lysate kidney: 41 RLU/20 μl lysate
  Luciferase RLU/20 μl lysate liver: 46 RLU/20 μl lysate
  Luciferase RLU/20 μl lysate lung: 42 RLU/20 μl lysate
WR 10, spleen
  Luciferase RLU/20 μl lysate spleen: 50 RLU/20 μl lysate
WR (lipid to DNA) 2, spleen
  Luciferase RLU/20 μl lysate spleen: 27 RLU/20 μl lysate
